Source: patent US20220324835A1 (Nurix Therapeutics, Inc., priority 2018, published 2022)
Like-named read-outs stand apart in the source and are kept apart here.

Assays:
T-cell [1] = experiment: IL-2 secretion from T-cells stimulated with anti-CD3 antibody alone (Biological Example 2); format: cell-based, human; details: T-cell, read-out: IL-2 secretion Anti-CD3 stimulation; for fold induction at 1 µM: 1 μM Cbl-b inhibitor; for fold induction at 8 µM: 8 μM Cbl-b inhibitor
Cbl-b [2] = biological target: T1, Cbl-b (Homo sapiens, UniProt Q13191); experiment: Cbl-b inhibition assay (Cbl-b activity assay, FRET, Biological Example 1; 100 mM NaCl, 60 nM Src kinase); format: biochemical; details: upper bound stated in text lists; read-out: IC50 values in the Cbl-b inhibition assay of Biological Example 1
T1 sequence (Q13191 36-427): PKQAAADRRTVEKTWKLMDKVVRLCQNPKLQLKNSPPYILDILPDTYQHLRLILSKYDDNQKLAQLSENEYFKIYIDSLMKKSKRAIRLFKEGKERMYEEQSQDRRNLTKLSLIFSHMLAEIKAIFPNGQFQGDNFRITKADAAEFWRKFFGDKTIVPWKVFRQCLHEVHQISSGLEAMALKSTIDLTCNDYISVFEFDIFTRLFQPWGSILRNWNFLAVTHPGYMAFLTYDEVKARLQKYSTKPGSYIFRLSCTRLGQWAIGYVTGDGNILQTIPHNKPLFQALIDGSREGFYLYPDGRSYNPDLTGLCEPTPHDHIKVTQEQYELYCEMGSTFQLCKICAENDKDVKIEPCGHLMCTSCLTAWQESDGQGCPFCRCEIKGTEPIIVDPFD
Outline: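 Inhibitor activity is measured as reduced terbium-to-fluorescein FRET between streptavidin-terbium on biotinylated Cbl-b and Bodipy-fluorescein ubiquitin carried by an irreversible UbcH5B-Ub conjugate, binding of which depends on Src phosphorylation of Cbl-b.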

T-cell [3] = experiment: CD25 cell surface staining on T-cells co-stimulated with anti-CD3 and anti-CD28 antibody (Biological Example 2); format: cell-based, human; details: Homo sapiens, T-cell
Outline: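 Values are fold-change over baseline: readings (IL-2 release, CD25 staining) from inhibitor-treated T-cells divided against untreated cells […]. No detailed procedure stated.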

Cbl-b [4] = biological target: T1, Cbl-b; experiment: Cbl-b activity assay (Cbl-b inhibition assay), TR-FRET of Cbl-b interaction with UbcH5B-Ub; format: biochemical; details: assay buffer with 100 mM NaCl, 60 nM Src kinase; read-out: Cbl-b activity IC50
Outline: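 Compound-treated Cbl-b was incubated 1.5 h with Src kinase (60 nM final; 30 nM for asterisked values, which also used 50 mM instead of 100 mM NaCl), 1 mM ATP and 5 mM MgCl2. Binding to fluorescent Ub-loaded UbcH5B (C85K mutant) was then read by TR-FRET after 1 h more.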

T-cell [5] = experiment: CD25 cell surface staining on T-cells stimulated with anti-CD3 antibody alone (Biological Example 2); format: cell-based, human; details: T-cell, read-out: CD25 staining Anti-CD3 stimulation; for fold induction at 1 µM: 1 μM Cbl-b inhibitor; for fold induction at 8 µM: 8 μM Cbl-b inhibitor
[6] = Homo sapiens, fold change over baseline (anti-CD3/anti-CD28 stimulated T-cells without inhibitor)
[7] = 0.3 μM Cbl-b inhibitor, fold change over baseline (anti-CD3/anti-CD28 stimulated T-cells without inhibitor), read-out: CD25 staining Anti-CD3/Anti-CD28 stimulation
[8] = 1 μM Cbl-b inhibitor, fold change over baseline (anti-CD3/anti-CD28 stimulated T-cells without inhibitor), read-out: CD25 staining Anti-CD3/Anti-CD28 stimulation
[9] = fold change over baseline, primary human total T-cells
[10] = fold change over baseline, 0.3 μM Cbl-b inhibitor, primary human total T-cells, read-out: CD25 staining Anti-CD3/Anti-CD28 stimulation
[11] = fold change over baseline, 1 μM Cbl-b inhibitor, primary human total T-cells, read-out: CD25 staining Anti-CD3/Anti-CD28 stimulation
[12] = fold change over baseline, 4 μM Cbl-b inhibitor, primary human total T-cells, read-out: CD25 staining Anti-CD3/Anti-CD28 stimulation
[13] = 0.3 μM compound, primary human total T-cells, baseline = anti-CD3/anti-CD28 stimulated cells without inhibitor, read-out: CD25 staining, Anti-CD3/Anti-CD28 stimulation, fold change over baseline
[14] = 1 μM compound, primary human total T-cells, baseline = anti-CD3/anti-CD28 stimulated cells without inhibitor, read-out: CD25 staining, Anti-CD3/Anti-CD28 stimulation, fold change over baseline
[15] = 4 μM compound, primary human total T-cells, baseline = anti-CD3/anti-CD28 stimulated cells without inhibitor, read-out: CD25 staining, Anti-CD3/Anti-CD28 stimulation, fold change over baseline

| SMILES | IC50 (Cbl-b [2]) [nM] | IC50 (Cbl-b [4]) [nM] | fold induction at 0.3 µM (T-cell [3]; [13]) | fold induction at 1 µM (T-cell [3]; [14]) | fold induction at 4 µM (T-cell [3]; [15]) | further results |
| --- | --- | --- | --- | --- | --- | --- |
| C[C@H](c1cc2c(c(C(F)(F)F)c1)CN(c1cccc(C3([C@@H](F)c4nncn4C)COC3)c1)C2=O)N1CCC2(CC2)C1 [Example 576, 6-((R)-1-(5-azaspiro[2.4]heptan-5-yl)ethyl)-2-(3-(3-((R)-fluoro(4-methyl-4H-1,2,4-triazol-3-yl)methyl)oxetan-3-yl)phenyl)-4-(trifluoromethyl)isoindolin-1-one] | ≤ 100 | < 100 |  |  |  | fold induction at 1 µM (T-cell [1]; [6]): > 0.201; fold induction at 0.3 µM (T-cell [3]; [7]): > 1.76; fold induction at 1 µM (T-cell [3]; [8]): > 1.76; fold induction at 1 µM (T-cell [5]; [6]): > 1 |
| Cn1cnnc1[C@H](F)C1(c2cccc(N3Cc4c(cc(CN5CCC(F)CC5)cc4C(F)(F)F)C3=O)c2)COC1 [Example 670b, (R)-2-(3-(3-(fluoro(4-methyl-4H-1,2,4-triazol-3-yl)methyl)oxetan-3-yl)phenyl)-6-((4-fluoropiperidin-1-yl)methyl)-4-(trifluoromethyl)isoindolin-1-one] | ≤ 100 | < 100 |  |  |  | fold induction at 1 µM (T-cell [1]; [6]): > 0.201; fold induction at 0.3 µM (T-cell [3]; [7]): > 1.76; fold induction at 1 µM (T-cell [3]; [8]): > 1.76; fold induction at 1 µM (T-cell [5]; [6]): > 1 |
| C[C@H](Sc1nncn1C)c1cccc(NC(=O)c2ccc(F)c(C3CC3)n2)c1 [Compound 91, 6-Cyclopropyl-5-fluoro-N-[3-[(1S)-1-[(4-methyl-1,2,4-triazol-3-yl)sulfanyl]ethyl]phenyl]pyridine-2-carboxamide] | ≤ 100 | < 100 |  |  |  | fold induction at 1 µM (T-cell [1]; [9]): < 0.05; fold induction at 8 µM (T-cell [1]; [9]): 0.101 to 0.15; fold induction at 0.3 µM (T-cell [3]; [10]): < 1; fold induction at 1 µM (T-cell [3]; [11]): < 1; fold induction at 4 µM (T-cell [3]; [12]): 1.01 to 1.3; fold induction at 1 µM (T-cell [5]; [9]): 0.601 to 0.8; fold induction at 8 µM (T-cell [5]; [9]): > 1 |
| C[C@H](Cc1nncn1C)c1cccc(NC(=O)c2cc(C3CC3)nc(C3CC3)n2)c1 [Compound 193, (R)-2,6-dicyclopropyl-N-(3-(1-(4-methyl-4H-1,2,4-triazol-3-yl)propan-2-yl)phenyl)pyrimidine-4-carboxamide] | ≤ 100 | < 100 |  |  |  | fold induction at 1 µM (T-cell [1]; [9]): > 0.201; fold induction at 8 µM (T-cell [1]; [9]): > 0.201; fold induction at 0.3 µM (T-cell [3]; [10]): 1.01 to 1.3; fold induction at 1 µM (T-cell [3]; [11]): 1.51 to 1.75; fold induction at 4 µM (T-cell [3]; [12]): 1.51 to 1.75; fold induction at 1 µM (T-cell [5]; [9]): > 1; fold induction at 8 µM (T-cell [5]; [9]): > 1 |
| C[C@H](c1cc2c(c(C(F)(F)F)c1)CN(c1cccc(C3(C(F)(F)c4nncn4C)COC3)c1)C2=O)N1CC[C@H](F)C1 [Example 571, 2-(3-(3-(difluoro(4-methyl-4H-1,2,4-triazol-3-yl)methyl)oxetan-3-yl)phenyl)-6-((R)-1-((S)-3-fluoropyrrolidin-1-yl)ethyl)-4-(trifluoromethyl)isoindolin-1-one] | ≤ 100 | < 100 |  |  |  | fold induction at 1 µM (T-cell [1]; [6]): > 0.201; fold induction at 0.3 µM (T-cell [3]; [7]): > 1.76; fold induction at 1 µM (T-cell [3]; [8]): > 1.76; fold induction at 1 µM (T-cell [5]; [6]): > 1 |
| Cn1cnnc1CC1(c2cccc(NC(=O)c3cc(CN4CCC5(CC5)C4)cc(C4CC4)n3)c2)COC1 [Compound 519, 4-((5-azaspiro[2.4]heptan-5-yl)methyl)-6-cyclopropyl-N-(3-(3-((4-methyl-4H-1,2,4-triazol-3-yl)methyl)oxetan-3-yl)phenyl)picolinamide] | ≤ 100 | < 100 | 1.31 to 1.5 | 1.31 to 1.5 |  |  |
| Cn1cnnc1CC1(c2cccc(N3Cc4c(cc(CN5CCC[C@H](F)C5)cc4C(F)(F)F)C3=O)c2)COC1 [Compound 432, 6-{[(3S)-3-fluoropiperidin-1-yl]methyl}-2-(3-{3-[(4-methyl-4H-1,2,4-triazol-3-yl)methyl]oxetan-3-yl}phenyl)-4-(trifluoromethyl)-2,3-dihydro-1H-isoindol-1-one] | ≤ 100 | < 100 | 1.31 to 1.5 | 1.31 to 1.5 |  |  |
| Cn1cnnc1C(F)(F)[C@](C)(F)c1cccc(N2Cc3c(cc(N4CCNCC4)cc3C(F)(F)F)C2=O)c1 [Compound 442, (R)-6-(Piperazin-1-yl)-2-(3-(1,1,2-trifluoro-1-(4-methyl-4H-1,2,4-triazol-3-yl)propan-2-yl)phenyl)-4-(trifluoromethyl)isoindolin-1-one] | ≤ 100 | < 100 | 1.31 to 1.5 | 1.51 to 1.75 | 1.51 to 1.75 |  |
| Cn1cnnc1CC1(c2cccc(N3Cc4c(cc(CN5CC6(CC6)C5)cc4C(F)(F)F)C3=O)c2)COC1 [Compound 487, 6-{5-azaspiro[2.3]hexan-5-ylmethyl}-2-(3-{3-[(4-methyl-1,2,4-triazol-3-yl)methyl]oxetan-3-yl}phenyl)-4-(trifluoromethyl)-3H-isoindol-1-one] | ≤ 100 | < 100 | 1.31 to 1.5 | 1.31 to 1.5 |  |  |
| COC1CN(Cc2cc3c(c(C(F)(F)F)c2)CN(c2cccc([C@@](C)(F)C(F)(F)c4nncn4C)c2)C3=O)C1 [Compound 452, (R)-6-((3-methoxyazetidin-1-yl)methyl)-2-(3-(1,1,2-trifluoro-1-(4-methyl-4H-1,2,4-triazol-3-yl)propan-2-yl)phenyl)-4-(trifluoromethyl)isoindolin-1-one] | ≤ 100 | < 100 | 1.01 to 1.3 | 1.31 to 1.5 | 1.31 to 1.5 |  |
| Cn1cnnc1C(F)(F)[C@](C)(F)c1cccc(N2Cc3c(cc(CN4CC[C@@H](F)C4)cc3C(F)(F)F)C2=O)c1 [Compound 450] | ≤ 100 | < 100 | 1.31 to 1.5 | 1.51 to 1.75 | 1.51 to 1.75 |  |
| C[C@H](Cc1nncn1C)c1cccc(N2Cc3c(cc(CN4CC[C@](C)(O)C4)cc3C(F)(F)F)C2=O)c1 [Compound 398, 6-(((S)-3-hydroxy-3-methylpyrrolidin-1-yl)methyl)-2-(3-((R)-1-(4-methyl-4H-1,2,4-triazol-3-yl)propan-2-yl)phenyl)-4-(trifluoromethyl)isoindolin-1-one] | ≤ 100 | < 100 | 1.01 to 1.3 | 1.31 to 1.5 | 1.31 to 1.5 |  |
| Cc1n[nH]c(C)c1-c1cc2c(c(C(F)(F)F)c1)CN(c1cccc(C3(Cc4nncn4C)COC3)c1)C2=O [Compound 385, 6-(3,5-dimethyl-1H-pyrazol-4-yl)-2-(3-{3-[(4-methyl-4H-1,2,4-triazol-3-yl)methyl]oxetan-3-yl}phenyl)-4-(trifluoromethyl)-2,3-dihydro-1H-isoindol-1-one] | ≤ 100 | < 100 | 1.01 to 1.3 | 1.01 to 1.3 | 1.31 to 1.5 |  |
| Cn1cnnc1C(F)(F)[C@](C)(F)c1cccc(N2Cc3c(cc(CN4CC[C@H](F)C4)cc3C(F)(F)F)C2=O)c1 [Compound 447, 6-(((S)-3-fluoropyrrolidin-1-yl)methyl)-2-(3-((R)-1,1,2-trifluoro-1-(4-methyl-4H-1,2,4-triazol-3-yl)propan-2-yl)phenyl)-4-(trifluoromethyl)isoindolin-1-one] | ≤ 100 | < 100 | 1.31 to 1.5 | 1.51 to 1.75 | 1.51 to 1.75 |  |
| Cn1cnnc1CC1(c2cccc(N3Cc4c(cc(CN5C[C@H]6C[C@H]6C5)cc4C(F)(F)F)C3=O)c2)COC1 [Compound 429, 6-(((1R,5S)-3-azabicyclo[3.1.0]hexan-3-yl)methyl)-2-(3-(3-((4-methyl-4H-1,2,4-triazol-3-yl)methyl)oxetan-3-yl)phenyl)-4-(trifluoromethyl)isoindolin-1-one] | ≤ 100 | < 100 | 1.31 to 1.5 | 1.31 to 1.5 | 1.51 to 1.75 |  |
